Measured values from PubChem BioAssay (NCI).
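Exposure lasted 48 hours, with cells grown in 96-well plates and compounds tested at five concentrations. GI50 = concentration required for 50% inhibition of growth. TGI is the concentration that stops growth completely.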

Assays:
Assay in all cases: growth of human tumour cells (NCI), 48 h
CAKI-1 renal = tested on: CAKI-1 renal
NCI-H23 lung = tested on: NCI-H23 lung
OVCAR-4 ovarian = tested on: OVCAR-4 ovarian
SF-268 CNS = tested on: SF-268 CNS
SF-539 CNS = tested on: SF-539 CNS
SK-MEL-28 melanoma = tested on: SK-MEL-28 melanoma
UACC-257 melanoma = tested on: UACC-257 melanoma
HS 578T breast = tested on: HS 578T breast
NCI/ADR-RES ovarian = tested on: NCI/ADR-RES ovarian
PC-3 prostate = tested on: PC-3 prostate

## COc1cccc(NC(=O)CC(=O)N2N=C(N3c4ccccc4Sc4ccccc43)CC2c2ccccc2)c1 (stereo not drawn)
CAKI-1 renal
  TGI: > 100 µM
NCI-H23 lung
  TGI: > 100 µM
OVCAR-4 ovarian
  TGI: > 100 µM
SF-268 CNS
  TGI: > 100 µM
SF-539 CNS
  TGI: > 100 µM
SK-MEL-28 melanoma
  TGI: > 100 µM
UACC-257 melanoma
  TGI: > 100 µM

## O=C(O)C(CS)NCc1c2ccccc2nc2ccccc12 (stereo not drawn)
CAKI-1 renal
  TGI: > 100 µM
NCI-H23 lung
  TGI: > 100 µM
OVCAR-4 ovarian
  TGI: 37.6 µM
SF-268 CNS
  TGI: > 100 µM
SF-539 CNS
  TGI: > 100 µM
SK-MEL-28 melanoma
  TGI: > 100 µM
UACC-257 melanoma
  TGI: > 100 µM

## COc1ccc(COC2CC(OC)OC(C)C2OC(=O)c2ccccc2)cc1 (stereo not drawn)
CAKI-1 renal
  TGI: > 100 µM
NCI-H23 lung
  TGI: > 92.6 µM
OVCAR-4 ovarian
  TGI: > 100 µM
SF-268 CNS
  TGI: > 100 µM
SF-539 CNS
  TGI: > 100 µM
SK-MEL-28 melanoma
  TGI: > 100 µM
UACC-257 melanoma
  TGI: > 100 µM

## O=S(=O)(/C=C/CS(=O)(=O)c1ccccc1)c1ccccc1
NCI-H23 lung
  TGI: 50 µM
OVCAR-4 ovarian
  TGI: > 100 µM
SF-268 CNS
  TGI: > 100 µM
SF-539 CNS
  TGI: 43.6 µM
SK-MEL-28 melanoma
  TGI: > 100 µM
UACC-257 melanoma
  TGI: 87 µM

## COc1cc2c(cc1OC)[C@@H](Nc1ccc(F)cc1)C1COC(=O)[C@@H]1C2c1cc(OC)c(O)c(OC)c1 (stereo partly drawn)
CAKI-1 renal
  TGI: 3.76 µM
NCI-H23 lung
  TGI: 18.6 µM
OVCAR-4 ovarian
  TGI: > 85.8 µM
SF-268 CNS
  TGI: > 67.1 µM
SF-539 CNS
  TGI: 4.26 µM
SK-MEL-28 melanoma
  TGI: > 100 µM
UACC-257 melanoma
  TGI: > 79.6 µM

## CNC(=O)OCc1c2ccncc2c(C)c2c1[nH]c1ccc(OC)cc12
CAKI-1 renal
  TGI: > 100 µM
OVCAR-4 ovarian
  TGI: 1.13 µM
SF-268 CNS
  TGI: 0.79 µM
SF-539 CNS
  TGI: 0.719 µM
SK-MEL-28 melanoma
  TGI: 2.04 µM

## COc1cnc2c(c1)C(=O)c1c-2n(CCCNC2=NCCS2)c(=O)c2cc(Cl)ccc12
CAKI-1 renal
  GI50: 0.0444 µM
  TGI: 1.6 µM
NCI-H23 lung
  GI50: 0.3 µM
  TGI: 2.11 µM
OVCAR-4 ovarian
  GI50: 1.42 µM
  TGI: 2.95 µM
SF-268 CNS
  GI50: 0.088 µM
  TGI: 2.06 µM
SF-539 CNS
  GI50: 0.475 µM
  TGI: 1.8 µM
UACC-257 melanoma
  GI50: 1.53 µM
  TGI: 3.11 µM

## COc1ccc(/C=C(\C(=O)NCc2cccnc2)S(=O)(=O)c2ccccc2)cc1OC
CAKI-1 renal
  GI50: 3.29 µM
  TGI: 11.7 µM
HS 578T breast
  GI50: 3.41 µM
  TGI: 26.3 µM
NCI-H23 lung
  GI50: 3.01 µM
  TGI: 10.6 µM
NCI/ADR-RES ovarian
  GI50: 18.2 µM
  TGI: > 100 µM
PC-3 prostate
  GI50: 3.5 µM
  TGI: 14.5 µM
SF-268 CNS
  GI50: 3.32 µM
  TGI: 15.9 µM
SF-539 CNS
  GI50: 2.49 µM
  TGI: 6.74 µM
SK-MEL-28 melanoma
  GI50: 3.06 µM
  TGI: 10.5 µM
UACC-257 melanoma
  GI50: 3.03 µM
  TGI: 13.9 µM

## O=C1/C(=N\O)S(=O)(=O)c2ccccc21
CAKI-1 renal
  TGI: > 100 µM
OVCAR-4 ovarian
  TGI: > 100 µM
SF-268 CNS
  TGI: > 100 µM
SF-539 CNS
  TGI: > 100 µM
UACC-257 melanoma
  TGI: > 100 µM

## CC(=O)[CH-]C(=O)c1ccccc1.CC(=O)[CH-]C(=O)c1ccccc1.CC(=O)[CH-]C(=O)c1ccccc1.[In+3]
CAKI-1 renal
  GI50: 99.7 µM
  TGI: > 100 µM
NCI-H23 lung
  GI50: 30.9 µM
  TGI: > 100 µM
OVCAR-4 ovarian
  GI50: 78.8 µM
  TGI: > 100 µM
SF-268 CNS
  GI50: 19.9 µM
  TGI: > 100 µM
SF-539 CNS
  GI50: 21.6 µM
  TGI: > 100 µM
SK-MEL-28 melanoma
  GI50: 34.2 µM
  TGI: > 100 µM
UACC-257 melanoma
  GI50: 46.2 µM
  TGI: > 100 µM

## CCc1ccc2c(c1)C(=O)c1c-2n(CCCN=[N+]=[N-])c(=O)c2cc(OC)c(OC)cc12
HS 578T breast
  GI50: 89.1 µM
  TGI: > 100 µM
NCI-H23 lung
  GI50: > 100 µM
  TGI: > 100 µM
NCI/ADR-RES ovarian
  GI50: > 100 µM
  TGI: > 100 µM
OVCAR-4 ovarian
  GI50: > 100 µM
  TGI: > 100 µM
PC-3 prostate
  GI50: > 100 µM
  TGI: > 100 µM
SF-268 CNS
  GI50: 60.7 µM
  TGI: > 100 µM
SF-539 CNS
  GI50: 57.2 µM
  TGI: > 100 µM
SK-MEL-28 melanoma
  GI50: > 100 µM
  TGI: > 100 µM
UACC-257 melanoma
  GI50: > 100 µM
  TGI: > 100 µM

## Cc1[nH]c2ccc(F)cc2c1-c1nc2c3cccnc3c3ncccc3c2[nH]1
CAKI-1 renal
  GI50: 0.358 µM
  TGI: > 100 µM
NCI-H23 lung
  GI50: 0.418 µM
  TGI: > 100 µM
OVCAR-4 ovarian
  GI50: 0.0966 µM
  TGI: > 100 µM
PC-3 prostate
  GI50: 0.393 µM
  TGI: > 100 µM
SF-268 CNS
  GI50: 0.205 µM
  TGI: > 100 µM
SK-MEL-28 melanoma
  GI50: 0.36 µM
  TGI: > 100 µM

## O=C(O)c1nc(-c2ccc(Cl)c(Cl)c2)nc2ccc(Cl)cc12
CAKI-1 renal
  TGI: > 100 µM
NCI-H23 lung
  TGI: > 100 µM
SF-268 CNS
  TGI: > 100 µM
SF-539 CNS
  TGI: > 100 µM
SK-MEL-28 melanoma
  TGI: > 100 µM
UACC-257 melanoma
  TGI: > 100 µM

## CCOC(=O)c1cc2c(n1Cc1cc(OC)c(OC)c(OC)c1)-c1oncc1CCC2
CAKI-1 renal
  GI50: 0.105 µM
  TGI: > 27.8 µM
HS 578T breast
  GI50: 0.343 µM
  TGI: > 100 µM
NCI-H23 lung
  GI50: 0.388 µM
  TGI: > 43.2 µM
NCI/ADR-RES ovarian
  GI50: 0.0614 µM
  TGI: > 100 µM
OVCAR-4 ovarian
  GI50: 1.36 µM
  TGI: > 67.4 µM
PC-3 prostate
  GI50: 0.209 µM
  TGI: > 65.3 µM
SF-268 CNS
  GI50: 0.657 µM
  TGI: > 60.2 µM
SK-MEL-28 melanoma
  GI50: 0.255 µM
  TGI: > 54.5 µM
UACC-257 melanoma
  GI50: 0.177 µM
  TGI: 28.5 µM

## CC(C)(c1ccccc1)c1ccc(Oc2ccc(C#N)c(C#N)c2)cc1
CAKI-1 renal
  GI50: > 100 µM
  TGI: > 100 µM
NCI-H23 lung
  TGI: > 100 µM
OVCAR-4 ovarian
  TGI: > 100 µM
SF-268 CNS
  TGI: > 100 µM
SF-539 CNS
  GI50: > 100 µM
  TGI: > 100 µM
SK-MEL-28 melanoma
  GI50: > 100 µM
  TGI: > 100 µM

## Cn1cc(-c2csc(-c3cn(CCCN4CCCCC4)c4ccccc34)n2)c2cccnc21
HS 578T breast
  GI50: 2.55 µM
  TGI: 6.26 µM
NCI-H23 lung
  GI50: 1.82 µM
  TGI: 3.62 µM
OVCAR-4 ovarian
  GI50: 2.02 µM
  TGI: 4.07 µM
PC-3 prostate
  GI50: 1.74 µM
  TGI: 3.3 µM
SF-268 CNS
  GI50: 1.72 µM
  TGI: 3.41 µM
SF-539 CNS
  GI50: 1.62 µM
  TGI: 3.08 µM
SK-MEL-28 melanoma
  GI50: 1.7 µM
  TGI: 3.19 µM
UACC-257 melanoma
  GI50: 1.96 µM
  TGI: 3.65 µM

## CCc1ccccc1NC(=O)/C(N=O)=C(/C)O
CAKI-1 renal
  TGI: > 100 µM
NCI-H23 lung
  TGI: > 100 µM
OVCAR-4 ovarian
  TGI: > 100 µM
SF-268 CNS
  TGI: > 100 µM
SF-539 CNS
  TGI: > 100 µM
SK-MEL-28 melanoma
  TGI: > 100 µM
UACC-257 melanoma
  TGI: > 100 µM

## O=C(NC(=Nc1ccccc1)SCCSC(=Nc1ccccc1)NC(=O)c1cccs1)c1cccs1
CAKI-1 renal
  TGI: > 100 µM
NCI-H23 lung
  TGI: > 100 µM
OVCAR-4 ovarian
  TGI: > 100 µM
SF-539 CNS
  TGI: > 100 µM
SK-MEL-28 melanoma
  TGI: > 100 µM
UACC-257 melanoma
  TGI: > 100 µM

## O=C(N/C(=C\c1ccc(/C=C(\NC(=O)c2ccccc2)c2nc3ccccc3[nH]2)cc1)c1nc2ccccc2[nH]1)c1ccccc1
CAKI-1 renal
  TGI: > 100 µM
NCI-H23 lung
  TGI: > 100 µM
OVCAR-4 ovarian
  TGI: > 100 µM
SF-268 CNS
  TGI: > 100 µM
SF-539 CNS
  TGI: > 100 µM
SK-MEL-28 melanoma
  TGI: > 100 µM
UACC-257 melanoma
  TGI: > 100 µM

## COc1ccc(CC2(Cc3ccc(OC)cc3)CCOC2=O)cc1
CAKI-1 renal
  TGI: > 100 µM
NCI-H23 lung
  TGI: > 100 µM
OVCAR-4 ovarian
  TGI: > 100 µM
SF-268 CNS
  TGI: > 100 µM
SK-MEL-28 melanoma
  TGI: > 100 µM
UACC-257 melanoma
  TGI: > 100 µM

## CCOc1ccc(NC(=O)C(=O)C(C(=O)c2ccc3ccccc3c2)C2OC(=O)c3ccccc32)cc1 (stereo not drawn)
CAKI-1 renal
  TGI: > 100 µM
NCI-H23 lung
  TGI: 33 µM
OVCAR-4 ovarian
  TGI: 44.5 µM
SF-268 CNS
  TGI: 62.4 µM
SF-539 CNS
  TGI: 39 µM
SK-MEL-28 melanoma
  TGI: 37.5 µM
UACC-257 melanoma
  TGI: 81.9 µM

## Oc1c(Cl)c(Cl)c(O)c2c1CCCC2
HS 578T breast
  TGI: 49.2 µM
NCI-H23 lung
  TGI: 40.8 µM
NCI/ADR-RES ovarian
  TGI: 38 µM
PC-3 prostate
  TGI: 36.7 µM
SF-268 CNS
  TGI: 24.8 µM
SF-539 CNS
  TGI: 23.5 µM
SK-MEL-28 melanoma
  TGI: 27.7 µM
UACC-257 melanoma
  TGI: 30.5 µM
